ChEMBL document CHEMBL4828722, “The synthesis and bioactivity of pyrrolo[2,3-d]pyrimidine derivatives as tyrosine kinase inhibitors for NSCLC cells with EGFR mutations” (Eur J Med Chem, 2021)
Activity calls are given as the source filed them. The rule behind the calls is not given here.

How the values were obtained:
HBE = assay: Inhibition of AKT/S6 phosphorylation […] in human HBE cells at 5 uM incubated for 2 hrs by immunoblotting analysis; assay type: cell-based
BEAS-2B = assay: Cytotoxicity against human BEAS-2B cells assessed as reduction in cell viability measured after 48 hrs by CCK8 assay; assay type: cell-based
A549 [1] = assay: Cytotoxicity against human A549 cells harboring wild type EGFR assessed as reduction in cell viability measured after 48 hrs by CCK8 assay; assay type: functional, cell-based; settings: A549, 48 h
A549 [2] = assay: Induction of cell cycle arrest in human A549 cells harboring wild type EGFR assessed as accumulation of cells in G0/G1 phase at 0.5 uM measured after 18 hrs by PI/RNaseA staining based flow cytometry analysis (Rvb= 58.27%); assay type: functional
A549 [3] = assay: Induction of cell cycle arrest in human A549 cells harboring wild type EGFR assessed as accumulation of cells in G0/G1 phase at 1 uM measured after 18 hrs by PI/RNaseA staining based flow cytometry analysis (Rvb= 58.27%); assay type: functional
A549 [4] = assay: Induction of cell cycle arrest in human A549 cells harboring wild type EGFR assessed as accumulation of cells in S phase at 1 uM measured after 18 hrs by PI/RNaseA staining based flow cytometry analysis (Rvb= 33.26%); assay type: functional
A549 [5] = assay: Induction of cell cycle arrest in human A549 cells harboring wild type EGFR assessed as accumulation of cells in G2/M phase at 1 uM measured after 18 hrs by PI/RNaseA staining based flow cytometry analysis (Rvb= 8.47%); assay type: functional
A549 [6] = assay: Induction of cell cycle arrest in human A549 cells harboring wild type EGFR assessed as accumulation of cells in G0/G1 phase at 5 uM measured after 18 hrs by PI/RNaseA staining based flow cytometry analysis (Rvb= 58.27%); assay type: functional
A549 [7] = assay: Induction of cell cycle arrest in human A549 cells harboring wild type EGFR assessed as accumulation of cells in S phase at 5 uM measured after 18 hrs by PI/RNaseA staining based flow cytometry analysis (Rvb= 33.26%); assay type: functional
A549 [8] = assay: Induction of cell cycle arrest in human A549 cells harboring wild type EGFR assessed as accumulation of cells in G2/M phase at 5 uM measured after 18 hrs by PI/RNaseA staining based flow cytometry analysis (Rvb= 8.47%); assay type: functional
NCI-H1975 [9] = assay: Induction of cell cycle arrest in human NCI-H1975 cells harboring EGFR L858R/T790M mutant assessed as accumulation of cells in S phase at 0.5 uM measured after 18 hrs by PI/RNaseA staining based flow cytometry analysis (Rvb= 39.78%); assay type: functional
NCI-H1975 [10] = assay: Induction of cell cycle arrest in human NCI-H1975 cells harboring EGFR L858R/T790M mutant assessed as accumulation of cells in G2/M phase at 0.5 uM measured after 18 hrs by PI/RNaseA staining based flow cytometry analysis (Rvb= 17.33%); assay type: functional
NCI-H1975 [11] = assay: Induction of cell cycle arrest in human NCI-H1975 cells harboring EGFR L858R/T790M mutant assessed as accumulation of cells in S phase at 1 uM measured after 18 hrs by PI/RNaseA staining based flow cytometry analysis (Rvb= 39.78%); assay type: functional
NCI-H1975 [12] = assay: Induction of cell cycle arrest in human NCI-H1975 cells harboring EGFR L858R/T790M mutant assessed as accumulation of cells in G2/M phase at 1 uM measured after 18 hrs by PI/RNaseA staining based flow cytometry analysis (Rvb= 17.33%); assay type: functional
HCC827 [13] = assay: Induction of cell cycle arrest in human HCC827 cells harboring EGFR del E746-A750 mutant assessed as accumulation of cells in G0/G1 phase at 0.5 uM measured after 18 hrs by PI/RNaseA staining based flow cytometry analysis (Rvb= 49.60%); assay type: functional
HCC827 [14] = assay: Induction of cell cycle arrest in human HCC827 cells harboring EGFR del E746-A750 mutant assessed as accumulation of cells in S phase at 1 uM measured after 18 hrs by PI/RNaseA staining based flow cytometry analysis (Rvb= 33.62%); assay type: functional
HCC827 [15] = assay: Induction of cell cycle arrest in human HCC827 cells harboring EGFR del E746-A750 mutant assessed as accumulation of cells in G0/G1 phase at 5 uM measured after 18 hrs by PI/RNaseA staining based flow cytometry analysis (Rvb= 49.60%); assay type: functional
HCC827 [16] = assay: Induction of cell cycle arrest in human HCC827 cells harboring EGFR del E746-A750 mutant assessed as accumulation of cells in S phase at 5 uM measured after 18 hrs by PI/RNaseA staining based flow cytometry analysis (Rvb= 33.62%); assay type: functional
HCC827 [17] = assay: Induction of cell cycle arrest in human HCC827 cells harboring EGFR del E746-A750 mutant assessed as accumulation of cells in G2/M phase at 5 uM measured after 18 hrs by PI/RNaseA staining based flow cytometry analysis (Rvb= 16.78%); assay type: functional
NCI-H1975 [18] = assay: Induction of apoptosis in human NCI-H1975 cells harboring EGFR L858R/T790M mutant assessed as dead cells at 0.5 uM measured after 18 hrs by Annexin V-FITC/PI staining based flow cytometry analysis (Rvb= […]); assay type: functional
NCI-H1975 [19] = assay: Induction of apoptosis in human NCI-H1975 cells harboring EGFR L858R/T790M mutant assessed as early apoptotic cells at 5 uM measured after 18 hrs by Annexin V-FITC/PI staining based flow cytometry analysis (Rvb= […]); assay type: functional
NCI-H1975 [20] = assay: Induction of apoptosis in human NCI-H1975 cells harboring EGFR L858R/T790M mutant assessed as late apoptotic cells at 5 uM measured after 18 hrs by Annexin V-FITC/PI staining based flow cytometry analysis (Rvb= 0.1%); assay type: functional
NCI-H1975 [21] = assay: Induction of apoptosis in human NCI-H1975 cells harboring EGFR L858R/T790M mutant assessed as dead cells at 5 uM measured after 18 hrs by Annexin V-FITC/PI staining based flow cytometry analysis (Rvb= […]); assay type: functional
HCC827 [22] = assay: Induction of apoptosis in human HCC827 cells harboring EGFR del E746-A750 mutant assessed as live cells at 5 uM measured after 18 hrs by Annexin V-FITC/PI staining based flow cytometry analysis (Rvb= 87.5%); assay type: functional
HCC827 [23] = assay: Induction of apoptosis in human HCC827 cells harboring EGFR del E746-A750 mutant assessed as total apoptotic cells at 5 uM measured after 18 hrs by Annexin V-FITC/PI staining based flow cytometry analysis (Rvb= 10.8%); assay type: functional
NCI-H1975 [24] = assay: Inhibition of AKT phosphorylation in human NCI-H1975 cells at 0.1 to 5 uM incubated for 2 hrs by immunoblotting analysis; assay type: cell-based; settings: dose 0.1-5 µM
HCC827 [25] = assay: Inhibition of AKT phosphorylation in human HCC827 cells at 0.1 to 5 uM incubated for 2 hrs by immunoblotting analysis; assay type: cell-based; settings: dose 0.1-5 µM
[26] = target: Ribosomal protein S6 kinase beta-1 (Homo sapiens) (UniProt P23443); assay: Inhibition of P70S6K phosphorylation in human HCC827 cells at 0.1 to 5 uM incubated for 2 hrs by immunoblotting analysis; assay type: cell-based; settings: dose 0.1-5 µM
Ribosomal protein S6 kinase beta-1 (Homo sapiens), sequence (P23443 whole entry, looked up): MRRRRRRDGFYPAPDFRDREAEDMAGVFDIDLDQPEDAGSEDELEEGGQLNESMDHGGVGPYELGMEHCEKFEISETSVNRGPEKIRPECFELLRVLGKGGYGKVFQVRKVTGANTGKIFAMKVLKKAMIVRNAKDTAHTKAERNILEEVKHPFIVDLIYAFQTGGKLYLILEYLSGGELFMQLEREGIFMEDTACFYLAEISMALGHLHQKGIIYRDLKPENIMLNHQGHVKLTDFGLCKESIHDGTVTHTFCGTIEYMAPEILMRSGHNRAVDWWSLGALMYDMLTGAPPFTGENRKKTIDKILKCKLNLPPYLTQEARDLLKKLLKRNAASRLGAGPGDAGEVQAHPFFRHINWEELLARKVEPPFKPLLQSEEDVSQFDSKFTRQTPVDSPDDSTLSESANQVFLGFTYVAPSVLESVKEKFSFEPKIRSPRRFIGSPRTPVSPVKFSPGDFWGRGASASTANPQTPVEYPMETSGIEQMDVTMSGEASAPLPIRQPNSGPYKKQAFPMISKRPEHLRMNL

Structure (SMILES) | inhibition (HBE) | IC50 (BEAS-2B) | IC50 (A549 [1]) | Activity (A549 [2]) | Activity (A549 [3]) | Activity (A549 [4]) | Activity (A549 [5]) | Activity (A549 [6]) | Activity (A549 [7]) | Activity (A549 [8]) | Activity (NCI-H1975 [9]) | Activity (NCI-H1975 [10]) | Activity (NCI-H1975 [11]) | Activity (NCI-H1975 [12]) | Activity (HCC827 [13]) | Activity (HCC827 [14]) | Activity (HCC827 [15]) | Activity (HCC827 [16]) | Activity (HCC827 [17]) | Activity (NCI-H1975 [18]) | other results
C=CC(=O)Nc1cccc(Oc2nc(Nc3ccc(N4CCN(C)CC4)c(N)c3)nc3[nH]ccc23)c1 | inactive | 7.8 µM | 6.07 µM | 60.45% | 64.23% | 26.07% | 9.7% | 85.05% | 6.86% | 8.09% | 19.32% | 16.64% | 19.24% | 11.6% | 74.57% | 20.39% | 78.12% | 13.93% | 7.95% | 2.5% | Activity (NCI-H1975 [19]): 15.9%; Activity (NCI-H1975 [20]): 0.2%; Activity (NCI-H1975 [21]): 2%; Activity (HCC827 [22]): 74.3%; Activity (HCC827 [23]): 28.7%; inhibition (NCI-H1975 [24]): Active; inhibition (HCC827 [25]): Active; inhibition [26]: Active
C=CC(=O)Nc1cccc(Oc2nc(Nc3ccc(N4CCN(C)CC4)c([N+](=O)[O-])c3)nc3[nH]ccc23)c1 | inactive | 3.68 µM | 2.9 µM | 62.63% | 70.46% | 21.21% | 8.33% | 82.55% | 8.2% | 9.25% | 20.79% | 14.32% | 13.11% | 14.81% | 77.19% | 10.81% | 81.52% | 4.36% | 14.12% | 2% | Activity (NCI-H1975 [19]): 13.2%; Activity (NCI-H1975 [20]): 0.3%; Activity (NCI-H1975 [21]): 1.8%; Activity (HCC827 [22]): 73.7%; Activity (HCC827 [23]): 30.3%; inhibition (NCI-H1975 [24]): Active; inhibition (HCC827 [25]): Active; inhibition [26]: Active
C=CC(=O)Nc1cccc(Oc2nc(Nc3ccc(N4CCN(C)CC4)c(F)c3)nc3[nH]ccc23)c1 [ABIVERTINIB] | inactive | 3.68 µM | 1.92 µM | 59.82% | 62.04% | 28.99% | 8.97% | 77.6% | 14.85% | 7.55% | 21.24% | 17.05% | 18.87% | 17.13% | 75.11% | 15.37% | 80.34% | 10.83% | 8.82% | 1.5% | Activity (NCI-H1975 [19]): 11.3%; Activity (NCI-H1975 [20]): 0.4%; Activity (NCI-H1975 [21]): 2%; Activity (HCC827 [22]): 63%; Activity (HCC827 [23]): 35.4%; inhibition (NCI-H1975 [24]): Active; inhibition (HCC827 [25]): Active; inhibition [26]: Active
